According to EP4755888A1 (ILAb Co., Ltd., priority 2023, dated 2025):

Biological target: PD-1/PD-L1 (Homo sapiens, UniProt Q9NZQ7)
Test: TR-FRET PD-1/PD-L1 binding inhibition at the molecular level (free proteins)
Conditions: Tag1-PD-L1 and Tag2-PD-1 proteins, twelve concentrations from 200 nM, 2 hours at room temperature, read-out: FRET assay (IC50)
Procedure, shortened: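 HTRF read-out at 665/620 nm after 2 h at room temperature. Detection used anti-Tag1 Eu cryptate plus anti-Tag2 XL665 antibodies. Tagged PD-L1 and PD-1 proteins were pre-mixed with compound across twelve […] 1:2 dilutions starting at 200 nM.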

PD-1/PD-L1, sequence (Q9NZQ7 19-238 limits assumed): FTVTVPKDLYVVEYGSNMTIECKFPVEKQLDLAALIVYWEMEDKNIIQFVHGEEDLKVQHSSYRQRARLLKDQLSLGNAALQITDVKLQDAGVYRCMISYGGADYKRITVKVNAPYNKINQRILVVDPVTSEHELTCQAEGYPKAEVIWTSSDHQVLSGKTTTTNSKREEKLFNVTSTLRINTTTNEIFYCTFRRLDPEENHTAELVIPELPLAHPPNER

Row | IC50 | Compound
1 | < 10 nM | Cn1c(C(=O)Nc2cccc(-c3cccc(NC(=O)c4cc5n(n4)CCC[C@H]5N4CC[C@@H](C(=O)O)C4)c3Cl)c2Cl)nc2c1CCN(CCC13CCC(C(=O)O)(CC1)C3)C2 [Compound 308, (R)-1-((R)-2-((3'-(5-(2-(4-carboxybicyclo[2.2.1]heptan-1-yl)ethyl)-1-methyl-4,5,6,7-tetrahydro-1H-imidazo[4,5-c]pyridine-2-carboxamido)-2,2'-dichloro-[1,1'-biphenyl]-3-yl)carbamoyl)-4,5,6,7-tetrahydropyrazolo[1,5-a]pyridin-4-yl)pyrrolidine-3-carboxylic acid]
2 | < 10 nM | CN[C@H]1CCCn2nc(C(=O)Nc3cccc(-c4cccc(NC(=O)c5ccc(CN6CC[C@@H](O)C6)cn5)c4C)c3C)cc21 [Compound 348, (S)-N-(3'-(5-(((R)-3-hydroxypyrrolidin-1-yl)methyl)picolinamido)-2,2'-dimethyl-[1,1'-biphenyl]-3-yl)-4-(methylamino)-4,5,6,7-tetrahydropyrazolo[1,5-a]pyridine-2-carboxamide]
3 | 10 to 100 nM | O=C(Nc1cccc(-c2cccc(Nc3nc(C(F)(F)F)nc4cc(CN5CC[C@@H](O)C5)cnc34)c2Cl)c1Cl)c1cc2n(n1)CCC[C@H]2N1CC[C@@H](O)C1 [Compound 339, (R)-N-(2,2'-dichloro-3'-((7-(((R)-3-hydroxypyrrolidin-1-yl)methyl)-2-(trifluoromethyl)pyrido[3,2-d]pyrimidin-4-yl)amino)-[1,1'-biphenyl]-3-yl)-4-((R)-3-hydroxypyrrolidin-1-yl)-4,5,6,7-tetrahydropyrazolo[1,5-a]pyridine-2-carboxamide]
4 | 10 to 100 nM | Cc1nc(Nc2cccc(-c3cccc(NC(=O)c4cc5n(n4)CCC[C@@H]5NC(C)(C)C(=O)O)c3Cl)c2Cl)c2ncccc2n1 [Compound 279, (S)-2-((2-((2,2'-dichloro-3'-((2-methylpyrido[3,2-d]pyrimidin-4-yl)amino)-[1,1'-biphenyl]-3-yl)carbamoyl)-4,5,6,7-tetrahydropyrazolo[1,5-a]pyridin-4-yl)amino)-2-methylpropanoic acid]
5 | 10 to 100 nM | Cc1c(NC(=O)c2cc3n(n2)CCC[C@H]3N2CCC(O)CC2)cccc1-c1cccc(Nc2nc(C(F)F)nc3cccnc23)c1C [Compound 288, (R)-N-(3'-((2-(difluoromethyl)pyrido[3,2-d]pyrimidin-4-yl)amino)-2,2'-dimethyl-[1,1'-biphenyl]-3-yl)-4-(4-hydroxypiperidin-1-yl)-4,5,6,7-tetrahydropyrazolo[1,5-a]pyridine-2-carboxamide]
6 | 10 to 100 nM | CN[C@@H]1CCCn2nc(C(=O)Nc3cccc(-c4cccc(Nc5nc(C(F)(F)F)nc6cc(CN7CC[C@@H](O)C7)cnc56)c4Cl)c3Cl)cc21 [Compound 353, (R)-N-(2,2'-dichloro-3'-((7-(((R)-3-hydroxypyrrolidin-1-yl)methyl)-2-(trifluoromethyl)pyrido[3,2-d]pyrimidin-4-yl)amino)-[1,1'-biphenyl]-3-yl)-4-(methylamino)-4,5,6,7-tetrahydropyrazolo[1,5-a]pyridine-2-carboxamide]
7 | < 10 nM | COc1cc(-c2cccc(-c3cccc(NC(=O)c4cc5n(n4)CCC[C@@H]5NCC(=O)O)c3Cl)c2Cl)cc(F)c1CN1CC[C@@H](O)C1 [Compound 247, 2-(((S)-2-((2,2'-dichloro-3"-fluoro-4"-(((R)-3-hydroxypyrrolidin-1-yl)methyl)-5"-methoxy-[1,1':3',1"-terphenyl]-3-yl)carbamoyl)-4,5,6,7-tetrahydropyrazolo[1,5-a]pyridin-4-yl)amino)acetic acid]
8 | 10 to 100 nM | O=C(Nc1cccc(-c2cccc(Nc3nc(C(F)F)nc4cc(CN5CC(F)C5)cnc34)c2Cl)c1Cl)c1cc2n(n1)CCC[C@H]2N1CCC(O)CC1 [Compound 270, (R)-N-(2,2'-dichloro-3'-((2-(difluoromethyl)-7-((3-fluoroazetidin-1-yl)methyl)pyrido[3,2-d]pyrimidin-4-yl)amino)-[1,1'-biphenyl]-3-yl)-4-(4-hydroxypiperidin-1-yl)-4,5,6,7-tetrahydropyrazolo[1,5-a]pyridine-2-carboxamide]

The remaining lines, values behind:

Row | Compound | IC50
9 | COc1cc(-c2cccc(-c3cccc(NC(=O)c4cc5n(n4)CCCC5N4CC[C@@H](O)C4)c3Cl)c2Cl)cc(F)c1CNCCO (stereo partly drawn) [Compound 125, N-(2,2'-dichloro-3"-fluoro-4"-(((2-hydroxyethyl)amino)methyl)-5"-methoxy-[1,1':3',1"-terphenyl]-3-yl)-4-((R)-3-hydroxypyrrolidin-1-yl)-4,5,6,7-tetrahydropyrazolo[1,5-a]pyridine-2-carboxamide] | < 10 nM
10 | CC(=O)NCCNC1CCCn2nc(C(=O)Nc3cccc(-c4cccc(Nc5nccc6cc(CN7CC[C@@H](O)C7)cnc56)c4Cl)c3Cl)cc21 (stereo partly drawn) [Compound 19, 4-((2-acetamidoethyl)amino)-N-(2,2'-dichloro-3'-((3-(((R)-3-hydroxypyrrolidin-1-yl)methyl)-1,7-naphthyridin-8-yl)amino)-[1,1'-biphenyl]-3-yl)-4,5,6,7-tetrahydropyrazolo[1,5-a]pyridine-2-carboxamide] | 10 to 100 nM
11 | O=C(O)CNC1CCCn2nc(C(=O)Nc3cccc(-c4cccc(NC(=O)c5nc6c(s5)CN(CCF)CC6)c4Cl)c3Cl)cc21 (stereo not drawn) [Compound 150-2, 2-((2-((2,2'-dichloro-3'-(5-(2-fluoroethyl)-4,5,6,7-tetrahydrothiazolo[5,4-c]pyridine-2-carboxamido)-[1,1'-biphenyl]-3-yl)carbamoyl)-4,5,6,7-tetrahydropyrazolo[1,5-a]pyridin-4-yl)amino)acetic acid] | < 10 nM
12 | Cn1c(C(=O)Nc2cccc(-c3cccc(NC(=O)c4cc5n(n4)CCCC5N4CCC(C(=O)O)CC4)c3Cl)c2Cl)nc2c1CCN(CCC13CCC(C(=O)O)(CC1)C3)C2 (stereo not drawn) [Compound 59, 1-(2-((3'-(5-(2-(4-carboxybicyclo[2.2.1]heptan-1-yl)ethyl)-1-methyl-4,5,6,7-tetrahydro-1H-imidazo[4,5-c]pyridine-2-carboxamido)-2,2'-dichloro-[1,1'-biphenyl]-3-yl)carbamoyl)-4,5,6,7-tetrahydropyrazolo[1,5-a]pyridin-4-yl)piperidine-4-carboxylic acid] | < 10 nM
13 | COc1cc(-c2cccc(-c3cccc(NC(=O)c4cc5n(n4)CCCC5O)c3C)c2C)cc(F)c1CNCCO (stereo not drawn) [Compound 114, N-(3"-fluoro-4"-(((2-hydroxyethyl)amino)methyl)-5"-methoxy-2,2'-dimethyl-[1,1':3',1 "-terphenyl]-3-yl)-4-hydroxy-4,5,6,7-tetrahydropyrazolo[1,5-a]pyridine-2-carboxamide] | < 10 nM
14 | COc1nc(-c2cccc(-c3cccc(-c4cc5n(n4)CCCC5NCC(=O)O)c3C)c2C)cnc1CNC[C@@H]1CCC(=O)N1 (stereo partly drawn) [Compound 163, 2-((2-(3'-(6-methoxy-5-(((((S)-5-oxopyrrolidin-2-yl)methyl)amino)methyl)pyrazin-2-yl)-2,2'-dimethyl-[1,1'-biphenyl]-3-yl)-4,5,6,7-tetrahydropyrazolo[1,5-a]pyridin-4-yl)amino)acetic acid] | 10 to 100 nM
15 | CC(=O)NCCNC1CCCn2nc(-c3cccc(-c4cccc(Nc5nccc6cc(CN7CC[C@@H](O)C7)cnc56)c4C)c3C)cc21 (stereo partly drawn) [Compound 175, N-(2-((2-(3'-((3-(((R)-3-hydroxypyrrolidin-1-yl)methyl)-1,7-naphthyridin-8-yl)amino)-2,2'-dimethyl-[1,1'-biphenyl]-3-yl)-4,5,6,7-tetrahydropyrazolo[1,5-a]pyridin-4-yl)amino)ethyl)acetamide] | < 10 nM
16 | Cc1c(NC(=O)c2cc3n(n2)CCCC3N2CC[C@@H](O)C2)cccc1-c1cccc(-c2nc3c(s2)CCN(C)C3)c1C (stereo partly drawn) [Compound 154, N-(2,2'-dimethyl-3'-(5-methyl-4,5,6,7-tetrahydrothiazolo[4,5-c]pyridin-2-yl)-[1,1'-biphenyl]-3-yl)-4-((R)-3-hydroxypyrrolidin-1-yl)-4,5,6,7-tetrahydropyrazolo[1,5-a]pyridine-2-carboxamide] | 10 to 100 nM
17 | O=C(Nc1cccc(-c2cccc(Nc3nccc4cc(CN5CC[C@@H](O)C5)cnc34)c2Cl)c1Cl)c1cc2n(n1)CCCC2NCCO (stereo partly drawn) [Compound 20, N-(2,2'-dichloro-3'-((3-(((R)-3-hydroxypyrrolidin-1-yl)methyl)-1,7-naphthyridin-8-yl)amino)-[1,1'-biphenyl]-3-yl)-4-((2-hydroxyethyl)amino)-4,5,6,7-tetrahydropyrazolo[1,5-a]pyridine-2-carboxamide] | 10 to 100 nM
18 | O=C(Nc1cccc(-c2cccc(NC(=O)c3cc4n(n3)CCCC4N3CCC(C(=O)O)CC3)c2Cl)c1Cl)c1ccc(CN2CC[C@@H](O)C2)cn1 (stereo partly drawn) [Compound 107, 1-(2-((2,2'-dichloro-3'-(5-(((R)-3-hydroxypyrrolidin-1-yl)methyl)picolinamido)-[1,1'-biphenyl]-3-yl)carbamoyl)-4,5,6,7-tetrahydropyrazolo[1,5-a]pyridin-4-yl)piperidine-4-carboxylic acid] | 10 to 100 nM
19 | COc1cc(-c2cccc(-c3cccc(NC(=O)c4cc5n(n4)CCCC5O)c3Cl)c2Cl)cc(F)c1CNCCO (stereo not drawn) [Compound 118, N-(2,2'-dichloro-3"-fluoro-4"-(((2-hydroxyethyl)amino)methyl)-5"-methoxy-[1,1':3',1"-terphenyl]-3-yl)-4-hydroxy-4,5,6,7-tetrahydropyrazolo[1,5-a]pyridine-2-carboxamide] | 10 to 100 nM
20 | O=C(O)CNC1CCCn2nc(C(=O)Nc3cccc(-c4cccc(NC(=O)c5ccc(CN6CC[C@@H](O)C6)c(F)n5)c4Cl)c3Cl)cc21 (stereo partly drawn) [Compound 202, 2-((2-((2,2'-dichloro-3'-(6-fluoro-5-(((R)-3-hydroxypyrrolidin-1-yl)methyl)picolinamido)-[1,1'-biphenyl]-3-yl)carbamoyl)-4,5,6,7-tetrahydropyrazolo[1,5-a]pyridin-4-yl)amino)acetic acid] | < 10 nM
21 | O=C(Nc1cccc(-c2cccc(NC(=O)c3cc4n(n3)CCC[C@@H]4N3CC[C@@H](O)C3)c2Cl)c1Cl)c1ccc(CNCCO)cn1 [Compound 243, (S)-N-(2,2'-dichloro-3'-(5-(((2-hydroxyethyl)amino)methyl)picolinamido)-[1,1'-biphenyl]-3-yl)-4-((R)-3-hydroxypyrrolidin-1-yl)-4,5,6,7-tetrahydropyrazolo[1,5-a]pyridine-2-carboxamide] | < 10 nM
